Experimental findings from PMC6149822, “A New Series of Pyrrole-Based Chalcones: Synthesis and Evaluation of Antimicrobial Activity, Cytotoxicity, and Genotoxicity” (Molecules : A Journal of Synthetic Chemistry and Natural …, 2017) are described below.

≈ marks a conversion by molar mass, not a printed value. Where only a bound is given, the exact number is not on record here.

Series [1] concerns C. parapsilosis (ATCC 22019). Kind of series: Microdilution susceptibility assay (MIC). Type of series: cell-based, Candida parapsilosis. The conditions noted are these: Lodderomyces parapsilosis, ATCC22019. As to the method:
(§1) Compounds 1–10 were screened for their antimicrobial activity against gram-negative bacteria, gram-positive bacteria, and yeasts, listed in Table 1. Bacteria were grown in Mueller-Hinton Broth and yeasts were grown in Sabouraud Dextrose Broth (SDB) during experiments. Overnight cultures were prepared routinely by subculturing of stock culture onto Mueller-Hinton Agar for bacteria and Sabouraud Dextrose Agar for yeasts.
(§2) Microdilution susceptibility assay was used for the determination of antibacterial and anticandidal efficacy of compounds 1–10. Chloramphenicol and ketoconazole were used as positive controls for bacteria and yeasts, respectively. All experiments were designed according to the Clinical Laboratory Standards Institute (CLSI). All chemicals were dissolved in dimethyl sulfoxide (DMSO) to obtain stock solution (10 mg/mL). Two-fold serial dilutions (800, 400, 200...0.78 µg/mL) of the compounds were prepared from stock solutions with dH2O. 100 µL of each solution was transferred to 96-well microtiter plates and 100 µL of 10^6 CFU/mL of bacteria and 2 × 10^3 of CFU/mL yeast were added to related wells. As negative controls, wells including microorganisms without agents and wells including agents without microorganisms were used. The plates were kept at 35 °C for 18–20 h and the growth was determined with resazurin (20 mg/mL). Assays were carried out in triplicate.
(Broth dilution looks for growth in wells or tubes with falling amounts of substance.)

In series [2] the test system is E. faecalis (ATCC 29212). Kind of series: Microdilution susceptibility assay (MIC). It counts as cell-based. The conditions noted are these: Enterococcus faecalis, ATCC29212. As to the method: as §1, §2
The subject of series [3] is E. faecalis (ATCC 51299). Kind of series: Microdilution susceptibility assay (MIC). It counts as cell-based. Conditions: Enterococcus faecalis, ATCC51299. The procedure:
as §1, §2

Series [4] deals with K. pneumoniae (ATCC 700603). Kind of series: Microdilution susceptibility assay (MIC). It counts as cell-based. Conditions: Klebsiella pneumoniae, ATCC700603. The procedure: as §1, §2
The subject of series [5] is S. aureus (ATCC 25923). Kind of series: Microdilution susceptibility assay (MIC). Type of series: cell-based. The conditions noted are these: Staphylococcus aureus, ATCC25923. The procedure:
as §1, §2

Series [6] deals with C. albicans (ATCC 90028). The experiment in a line: Microdilution susceptibility assay (MIC). Type of series: cell-based. The conditions noted are these: Candida albicans, ATCC90028. The procedure:
as §1, §2

The test system of series [7] is E. coli (ATCC 25922). The experiment in a line: Microdilution susceptibility assay (MIC). Type of series: cell-based. Conditions: Escherichia coli, ATCC25922. As to the method: as §1, §2
For series [8], the system named is C. glabrata (ATCC 90030). Kind of series: Microdilution susceptibility assay (MIC). It counts as cell-based, Candida glabrata. The conditions noted are these: Nakaseomyces glabratus, ATCC90030. The procedure: as §1, §2
Series [9] concerns C. albicans. Kind of series: ATP luminescence microbial cell viability assay. Type of series: cell-based, Candida albicans. Conditions: 24 h treatment, result in words. As to the method: (§3) A model from BioTek Instruments Inc. combined with a BacTiter-Glo^TM Microbial Cell Viability assay (Promega Corp., Madison, WI, USA) was used to provide a sensitive and rapid method for determining the number of viable microbial cells in culture based on quantitation of the ATP present. […] After incubation, cultures were added into the wells (final concentration of bacteria was 5 × 10^5 CFU/mL and 2.5 × 10^6 CFU/mL for yeasts). After adding the BacTiter reagent, incubation time for bacteria and yeasts was 5 min and 15 min, respectively.
The assay generates a “glow-type” luminescent signal, produced by the luciferase reaction. Briefly, after chemicals and strains were incubated for 24 h, 100 µL of the culture was taken from each well and mixed with the same volume of the BacTiter-Glo™ reagent in a white, opaque-walled microtiter plate. Control wells containing medium without cells were prepared to obtain a value for background luminescence. Cells without compound were used as an ATP-positive control. The microplates were further incubated under agitation for 7 min. Bioluminescence was recorded in a multi-detection microplate reader (BioTek Synergy 2 Multi-Mode Microplate Reader, BioTek Instruments, Winooski, VT, USA). […] Experiments were performed in triplicate and each sample was measured in four replicates.

Series [10] concerns E. faecalis (ATCC 29212). Kind of series: ATP luminescence microbial cell viability assay. Type of series: cell-based, Enterococcus faecalis. The conditions noted are these: 24 h treatment, result in words. The procedure: as §3
(§4) The assay generates a “glow-type” luminescent signal, produced by the luciferase reaction. Briefly, after chemicals and strains were incubated for 24 h, 100 µL of the culture was taken from each well and mixed with the same volume of the BacTiter-Glo™ reagent in a white, opaque-walled microtiter plate. Control wells containing medium without cells were prepared to obtain a value for background luminescence. Cells without compound were used as an ATP-positive control. The microplates were further incubated under agitation for 7 min. Bioluminescence was recorded in a multi-detection microplate reader (BioTek Synergy 2 Multi-Mode Microplate Reader, BioTek Instruments, Winooski, VT, USA). In Figure 3, results were given as percentage of untreated control, which is set at 100%. Experiments were performed in triplicate and each sample was measured in four replicates.

The test system of series [11] is HepG2 human hepatocellular carcinoma cell line. The experiment in a line: MTT assay. It counts as cell-based. Conditions: Homo sapiens, HepG2. As to the method: (§5) The anticancer effects of compounds 1–10 on A549 human lung adenocarcinoma (ATCC® CCL-185™), HepG2 human hepatocellular carcinoma (ATCC® HB-8065™), and C6 rat glioma (ATCC® CCL107™) cell lines were assessed using 3-(4,5-Dimethylthiazol-2-yl)-2,5-diphenyltetrazolium bromide (MTT) assay, whereas the selectivity of compounds 1–10 was tested using NIH/3T3 mouse embryonic fibroblast cell line (ATCC® CRL-1658™, London, UK). All cell lines were incubated according to the supplier’s recommendations. The cells were seeded as 1 × 10^4 cells into each well of the 96-well plates. MTT assay was performed as previously described. The compounds were tested between the concentrations equal to 1 mM and 0.000316 mM (1.0, 0.316, 0.10, 0.0316, 0.01, 0.00316, 0.001, 0.000316 mM). Stock solutions of compounds were prepared in dimethyl sulfoxide (DMSO) and further dilutions were made with fresh culture medium. The final DMSO concentration was under 1% [34] and cisplatin was used as a positive control. Inhibition % was calculated for each concentration according to the formula below, and IC50 values were determined by plotting a dose–response curve of inhibition % versus compound concentrations tested. All experiments were performed in quadruplicate.Inhibition % = 100 − [(ODtest compound − ODblank/ODsolvent control − ODblank)] × 100(1)
(In general: Tetrazolium assays rely on reduction of a dye to a coloured formazan, in cell work by metabolically active cells.)

The test system of series [12] is C6 rat glioma cell line. The experiment in a line: MTT assay. Conditions: Rattus norvegicus, C6. Type of series: cell-based. As to the method:
as §5

Series [13] has as its system NIH/3T3 mouse embryonic fibroblast cell line. The experiment in a line: MTT assay. Type of series: cell-based. Conditions: Mus musculus, NIH3T3, healthy cells for selectivity. The procedure: as §5
In series [14] the test system is A549 human lung adenocarcinoma cell line. The experiment in a line: MTT assay. Type of series: cell-based. The conditions noted are these: Homo sapiens, A549. As to the method:
as §5

Series [15] deals with C. krusei (ATCC 6258). Kind of series: Microdilution susceptibility assay (MIC). Type of series: cell-based, Candida krusei. Conditions: Pichia kudriavzevii, ATCC6258. The procedure:
as §1, §2

Series [16] concerns E. faecalis (ATCC 51299). The experiment in a line: ATP luminescence microbial cell viability assay. Conditions: 24 h treatment, result in words. It counts as cell-based, Enterococcus faecalis. As to the method:
as §3, §4

`Cn1cccc1C(=O)C=Cc1ccc(-c2ccccc2[N+](=O)[O-])o1` [Compound 3, 1-(1-Methyl-1H-pyrrol-2-yl)-3-(5-(2-nitrophenyl)furan-2-yl)prop-2-en-1-one] had a melting point of 94 to 95 °C. This compound came in with an MIC in series [1] of 50 µg/mL (≈ 155 µM). The compound also came in with an MIC in series [2] of 100 µg/mL (≈ 310 µM). Moreover, the lowest concentration to inhibit growth in series [3] (MIC) was 200 µg/mL (≈ 621 µM). For the same compound, in [4], the MIC worked out at 200 µg/mL (≈ 621 µM). The compound also registered an MIC in series [5] of 100 µg/mL (≈ 310 µM). Further, the MIC in series [6] stood at 50 µg/mL (≈ 155 µM). For the same compound, in series [7], the lowest concentration to inhibit growth (MIC) was 100 µg/mL (≈ 310 µM). Also, 100 µg/mL (≈ 310 µM) was the least that counted as inhibitory in [8] (MIC). Further, the “antifungal activity in ATP bioluminescence assay” value in series [9] is “no statistically significant effects”. Also, the “antimicrobial activity in ATP bioluminescence assay” value (“antimicrobial activity” below) in series [10] is on record as “sensitive”. This compound also gave an IC50 in series [11] of 27 µg/mL (≈ 83.8 µM). In addition, the IC50 in [12] was > 322 µg/mL. Further, in series [13], the IC50 is > 322 µg/mL. Also, the IC50 in series [14] is > 322 µg/mL. The same compound had an MIC in [15] of 100 µg/mL (≈ 310 µM).
Take `Cn1cccc1C(=O)C=Cc1ccc(-c2cccc([N+](=O)[O-])c2)o1` [Compound 2, 1-(1-Methyl-1H-pyrrol-2-yl)-3-(5-(3-nitrophenyl)furan-2-yl)prop-2-en-1-one]: the melting point lay within 123 to 124 °C. In [1], this compound gave an MIC of 100 µg/mL (≈ 310 µM). Also, in [2], it took 100 µg/mL (≈ 310 µM) to inhibit growth (MIC). Inhibition of growth in series [3] (MIC) required 100 µg/mL (≈ 310 µM). In series [4], this compound displayed an MIC of 200 µg/mL (≈ 621 µM). The compound further gave an MIC in series [5] of 200 µg/mL (≈ 621 µM). In [6], inhibition of growth (MIC) required 100 µg/mL (≈ 310 µM). The compound further displayed an MIC in [7] of 100 µg/mL (≈ 310 µM). In series [8], the lowest concentration to inhibit growth (MIC) was 100 µg/mL (≈ 310 µM). Besides, the “antimicrobial activity” value in series [10] was “sensitive”. Moreover, in series [16], the “antimicrobial activity” value is recorded as “antimicrobial activity close to chloramphenicol”. Also, the IC50 in series [11] is 277 µg/mL (≈ 859 µM). Moreover, the midpoint of inhibition in series [12], the IC50, lay at 258 µg/mL (≈ 800 µM). The IC50 in series [13] was > 322 µg/mL. In series [14], this compound came in with an IC50 of 322 µg/mL (≈ 999 µM). In [15], this compound came in with an MIC of 100 µg/mL (≈ 310 µM).
In the case of `Cn1cccc1C(=O)C=Cc1ccc(-c2ccc(Cl)c(Cl)c2)o1` [Compound 10, 1-(1-Methyl-1H-pyrrol-2-yl)-3-(5-(3,4-dichlorophenyl)furan-2-yl)prop-2-en-1-one], the melting point is 132 to 133 °C. Also, in series [1], the MIC was 100 µg/mL (≈ 289 µM). Also, the MIC in series [2] was determined as 400 µg/mL (≈ 1160 µM). This compound registered an MIC in [3] of 100 µg/mL (≈ 289 µM). This compound also yielded an MIC in series [4] of 200 µg/mL (≈ 578 µM). It took 200 µg/mL (≈ 578 µM) to inhibit growth in series [5] (MIC). The MIC in [6] was 100 µg/mL (≈ 289 µM). In [7], this compound showed a minimal inhibitory concentration (MIC) of 100 µg/mL (≈ 289 µM). In series [8], this compound returned an MIC of 200 µg/mL (≈ 578 µM). For the same compound, the “antimicrobial activity” value in series [16] is given as “antimicrobial activity close to chloramphenicol”. This compound also returned an IC50 in [11] of 100 µg/mL (≈ 289 µM). Moreover, the IC50 in series [12] is 100 µg/mL (≈ 289 µM). In [13], this compound gave an IC50 of 148 µg/mL (≈ 427 µM). Inhibition in series [14] was half-maximal at 346 µg/mL (≈ 999 µM) (IC50). Moreover, in series [15], the MIC stood at 200 µg/mL (≈ 578 µM).

The term melting point denotes the temperature, or range, at which the solid turns liquid. One may read the MIC as the lowest concentration found to suppress growth. What is called IC50 is the midpoint of a concentration-inhibition curve.
